Data taken from US20260355168A1, “COMPOSITIONS AND METHODS FOR TREATING AND DETECTING CANCER” (CASE WESTERN RESERVE UNIVERSITY, priority 2022, published 2026).
“Also recorded” adds a separate entry of the source.

Experiments:
Assay type in all cases: cell-based, human
LN229 cells [1] = assay: Helix Blue staining of LN229 spheres (cell survival); details: 100 μM, 24 h, qualitative
Experimental: FIG. 17 illustrates images showing the effects of prioritized inhibitors on cell survival. LN229 cells were plated onto non-adherent surfaces and cultured in the presence of the indicated compounds (100 μM). On day 1, spheres were stained with Helix Blue to detect dying cells. Parental Sf9 cells (which lack PTPμ) plated onto tissue culture plastic were also grown in the presence of the indicated compounds and, on day 1, stained with Helix Blue. Three compounds appeared to cause a qualitative increase in staining in LN229 spheres. No compound was toxic to Sf9 cells.
LN229 cells, plated onto non-adherent surfaces as described above, and parental Sf9 cells (without PTPμ), seeded into 96-well flat bottom tissue culture plates, were treated for 24 h with the indicated compounds (100 μM). The cells and spheres were then treated with 5.5 μM Helix Blue (Biolegend, San Diego, CA) and imaged at 10× on a Leica CTR6500 fluorescence microscope.
The seven penetrant inhibitors were tested to see if they affected the survival of LN229 spheres and parental Sf9 cells (which lack PTPμ) (FIG. 17).

Gli36 cells = assay: Gli36 scratch wound healing assay; details: 100 μM; for Effect on Gli36 migration (scratch wound closure): endpoint 8 h, in words
Experimental: FIGS. 4(A-D) illustrate a histogram and images showing the results of the Gli36 scratch wound assays. Selected inhibitors, activators, and control compounds identified in LN229 and/or U87 scratch wound closure assays were retested at 100 μM for effects on Gli36 migration. A. Histogram showing the normalized migration distance for each treated sample. Data is presented as average % movement±s.e.m, and compound bar codes are shown on the x-axis. The majority of compounds were screened with an n of 2-4. Representative endpoint images of samples treated with DMSO (B) and two priority inhibitors (C and D) are shown. The relative migration distances for each example are shown.
Cells were seeded at a density of 2.7×10^4 cells per well into the internal wells of Incuyte1 Imagelock 96-well plates (Essen BioScience Inc., Ann Arbor, MI) and cultured overnight to form monolayers. Monolayers were wounded with an IncuCyte1 96-well Woundmaker Tool per the manufacturer's instructions. The outer wells were filled with PBS to buffer edge effects, and then the wounded monolayers were cultured in 100 μl of fresh media with compounds or DMSO (2×replicates at 100 μM or 1%, respectively) at 37 °C and 5% CO2. Images were captured every 4 hrs. using an Incucyte live cell imaging system equipped with the Scratch Wound Module. Scratch wound widths were calculated, per the manufacturer's instructions, at TO and at endpoint (typically T12 for LN229 and U87 cells and T8 for Gli36), which was taken as the last timepoint before wound closure. The cell migration distance was calculated from scratch widths [(T0Width−TendpointWidth)/2] and normalized to the average distance migrated by the DMSO controls. Values are presented as average percentages±standard errors of the means (s.e.m.). The majority of compounds were screened with an n of two, but the n for priority hits ranges from 2-6.
All inhibitors identified in the primary screens, a selection of U87-specific activators, and some apparently inert control compounds were rescreened in scratch wound assays using an additional glioma cell line (Gli36) (FIG. 4A).

LN229 cells [2] = assay: LN229 glioma sphere formation and growth assay; details: for Effect on LN229 sphere formation: day 1; for Effect on LN229 sphere formation / Effect on LN229 sphere growth: in words
Experimental: FIGS. 5(A-E) illustrate a histogram and images showing the results of the LN229 sphere formation and growth assays. Selected inhibitors, activators, and control compounds identified in LN229 and/or U87 scratch wound closure assays were retested at 100 μM in a secondary assay for glioma cell (LN229) sphere formation and growth. A. Histogram showing the effects of the indicated compounds on sphere formation. On day 1, sphere footprint areas were determined and normalized to the average footprint area of the unblinded vehicle-treated controls. On day 1, a larger footprint area indicates inhibition of aggregation. B. Histogram showing the effects of the indicated compounds on sphere growth. On day 7, the changes in sphere footprint areas were calculated and normalized to the average size change of the unblinded vehicle-treated controls. On day 7, a smaller value indicates reduced growth. […] Data is presented as percentages±s.e.m. of 2-4 replicates. Representative images of samples treated with DMSO (C) and two priority inhibitors (D and E) are shown. Relative day 1 footprint areas and day 7 growth measurements are indicated for each example.
FIGS. 15(A-D) illustrate a histogram and images of titration of selected compounds on LN229 sphere formation and growth. LN229 cells were plated onto non-adherent surfaces and treated with the indicated compounds at 100, 50, and 25 μM. A. On day 1, sphere footprint areas were determined and normalized to the average footprint area of the unblinded vehicle-treated controls. On day 1, a larger foot-print area indicates inhibition of aggregation. B. On day 7, the changes in sphere footprint areas were calculated and normalized to the average size change of the unblinded vehicle-treated controls. On day 7, a smaller value indicates reduced growth. […] Data is presented as percentages±s.e.m. The initial test at 100 μM and the follow-up at that dose with titration is shown. Each bar is the average of 2 replicates. Representative day 1 (C) and day 7 (D) images of samples treated with two priority inhibitors are shown. Relative day 1 sphere footprint areas and day 7 growth for each example are indicated.
Cells were seeded at a density of 7500 cells per well into the internal wells of 96-well plates coated with 0.75% (wt/vol) PVA as previously described. Compounds were added (2×replicates per treatment) at the indicated final concentrations, and control wells were treated with matching concentrations of DMSO. The external wells of the plates were filled with PBS to buffer against edge effects, and the cells were incubated at 37 °C and 5% CO2 for 7 days. A Leica CTR6500 microscope fitted with an automated stage was used to capture brightfield images on day 1 and day 7, and sphere footprint areas were measured using Image J (v1.52a http://imagej.nih.gov/ij) as previously described. To quantify the effects of the compounds on day 1, the footprint areas of the treated wells were normalized to the average area of the matched DMSO control wells. To quantify the effects of the compounds on sphere growth, the change in the sphere footprint areas was calculated ([…]) and then normalized to the average size change of the matched DMSO samples. All values are presented as average percentages±s.e.m.
We tested the effects of twenty-four compounds (11 flagged as inhibitory, 4 as stimulatory, and nine as inert in the initial scratch-wound screen, FIG. 2) on the ability of LN229 cells to mediate cell-cell adhesion and grow in 3D culture on non-adherent surfaces. To quantify sphere formation (FIG. 5A), the footprint areas of aggregates were measured on day 1 and normalized to that of the DMSO control. At this time point, a larger footprint size (>120%) indicates inhibition, i.e., the failure of cells to form a compact aggregate. To quantify sphere growth (FIG. 5B), we calculated the percent changes in sphere footprint areas between day 1 and day 7 and normalized them to that of the DMSO controls.

| Structure (SMILES) | Effect on LN229 cell survival / cell death (LN229 cells [1]) | Effect on Gli36 cell morphology in scratch assay (Gli36 cells) | Effect on Gli36 migration (scratch wound closure) (Gli36 cells) | Effect on LN229 sphere formation (LN229 cells [2]; 50 μM) | Effect on LN229 sphere formation (LN229 cells [2]; 100 μM) | Effect on LN229 sphere growth (LN229 cells [2]; 100 μM, day 7) | sphere growth relative to control at 100 µM (LN229 cells [2]; Homo sapiens, LN-229, 168 h, read-out: LN229 sphere growth relative to control (threshold for inhibition), heading: LN229 sphere growth relative to control, 100 μM, day 7) [%] | Effect on LN229 sphere growth (LN229 cells [2]; 50 μM, day 7) | minimal effective concentration (LN229 cells [2]; Homo sapiens, LN-229, titration 100, 50, 25 μM, read-out: Lowest dose effective at inhibiting LN229 sphere growth) [µM] |
| --- | --- | --- | --- | --- | --- | --- | --- | --- | --- |
| O=C(NCc1nc(-c2ccncc2)no1)c1ccc(Cl)c(S(=O)(=O)NCc2ccccc2)c1 [Compound 247678791] | did not affect LN229 survival | did not dramatically affect Gli36 cell morphology | moderate inhibitor | slowed aggregation at 100 and 50 μM | aggregated more slowly than controls; also recorded: slowed aggregation at 100 and 50 μM | grew poorly in 3D culture | < 60 | – | – |
| COc1cc(C)ccc1OCC(=O)Nc1nc(-c2c[nH]c(C(N)=O)c2)cs1 [Compound 247678835] | caused a qualitative increase in LN229-cell death; also recorded: induced LN229-cell death in vitro; also recorded: affect the survival of LN229 cells | reduced the appearance of processes and cell chains at the scratch edge | strong priority inhibitor | condensation was slowed | failed to compact and formed a mat of cells at the bottom of the well; also recorded: dramatically disrupted sphere formation at 100 μM | – | – | grew poorly in culture | 50 |
| CCN(C(=O)CN1C(=O)NC(C)(CCC(C)C)C1=O)c1cccc2ccccc12 (centres unmarked) [Compound 247677616] | caused a qualitative increase in LN229-cell death; also recorded: causing LN229 cell death | dramatic effect on Gli36 cell morphology | – | – | completely blocked sphere formation | – | – | – | – |
